Experimental data published in US20260166021A1, “POLYMORPHIC FORMS OF A SOLUBLE EPOXIDE HYDROLASE INHIBITOR AND FORMULATIONS THEREOF” (EicOsis, LLC, priority 2022, published 2026).
Where two headings read alike, the source gives them in different places.

Assays:
Type in all cases: physicochemical
[1] = Competitive slurry experiments (solvent-mediated polymorph transformation, XRD); conditions: 1 and 7 days
Description: Polymorph stability and interconversions were analyzed with competitive slurry experiments. The competitive slurry (solvent-mediated transformation) experiments were performed on Forms A, B, D, E, F, G, and I generated through scaled-up crystallization (summarized in TABLE 11). […] The suspensions were aliquoted at one day and seven days and filtered to isolate the solids. Remaining solid was analyzed by XRD without drying.
In FIG. 66, the second spectrum from the top corresponds to Form E. These XRD data confirmed that Patterns C, K, and D were afforded in these solvents.
In order to further confirm the rank of stability order of the selected forms and extend the temperature range of stability relationship up to 70° C. covering potential API process conditions, binary form slurries were conducted with starting mixtures of (1) Forms A and D, and (2) Forms D and E. The resultant polymorphs were characterized with XRD after 1 and 7 days, the results of which analyses are shown in FIGURE S 67-68 and summarized in TABLE 13. Pattern D stood out from both binary mixture slurries of A & D and of D & E after seven-day stirring at the elevated temperature.
Additional single form slurry experiments were conducted on Forms A, D, and E in either water or heptane at room temperature. […] In agreement with prior competitive slurry experiments, Form D was stable at room temperature in n-heptane. Pattern E was obtained from slurries starting with Forms A and E in n-heptane. As expected, Form C was formed from the Pattern E slurry in water.

[2] = PEG-stability analyses: Form C/Form D mixture slurried in PEG300 with water; conditions: 1:1 mixture of Forms C and D slurried in PEG300; XRD
Description: Of particular interest was whether Form D would convert to a hydrate (e.g., Form C) in the presence of water. To investigate the critical water concentration for phase interconversion between Pattern C and D, a series experiments were designed (as summarized in TABLE 16). A 1:1 mixture of Forms C and D was prepared and slurried in PEG 300 with different levels of water concentrations. Phase transformations were monitored with XRD, and are summarized in FIG. 85, which (from top to bottom) provides XRD of Form C, Form D, the mixture following incubation in PEG300 containing 75% water, the mixture following incubation in PEG300 containing 50% water, the mixture following incubation in PEG300 containing 25% water, the mixture following incubation in PEG300 containing 10% water, and the mixture following incubation in PEG300 containing 5% water. […] Form D is the stable form in PEG300 with less than 50% water.

[3] = Hygroscopic analyses: stability at 75% relative humidity and 40° C. (XRD); conditions: open vial, after 4 and 14 days
Description: To further evaluate physical stability, Form D was tested for stability in humid conditions. […] FIG. 84 summarizes XRD analyses used to monitor the polymorph over the 14-day experiment. In this figure, the top panel provides a representative XRD spectrum of Form D, the second from the top panel is an XRD spectrum of the starting material, the third from the top panel is an XRD spectrum of the starting material after 4 days of humidity exposure, and the bottom panel is an XRD spectrum of the starting material after 14 days of humidity exposure.

[4] = Solubility screening of Formula (I) in crystallization solvents at RT and 50° C. (TABLE 3); conditions: for solubility: thermodynamic from solid
Description: This example covers crystallization of Formula (I) in multiple solvent systems. Solvents were selected to span a range of polarities, functionalities, and classifications according to the International Conference on Harmonization (ICH) with preferences given to class II and class III solvents. […] After each addition of solvent, the vials were shaken and visually inspected for residual solids. If required, heating to 50° C. or heated to reflux (for low boiling point solvents) for approximately two minutes was performed to ensure complete dissolution. If residual solids remained, additional solvent aliquots were added. The solvent addition was discontinued when complete dissolution was achieved. […]

CC[C@H](C)C(=O)N1CCC(NC(=O)Nc2ccc(OC(F)(F)F)c(F)c2)CC1 [Form D, (S)-1-(3-fluoro-4-(trifluoromethoxy)phenyl)-3-(1-(2-methylbutanoyl)piperidin-4-yl)urea]
polymorph stability in binary form slurries ([1]; mixtures A & D and D & E, n-heptane, up to 70° C.): most thermodynamically stable | single form slurry in n-heptane: resultant polymorph ([1]; n-heptane, room temperature): stable | polymorph stability in competitive slurry ([1]; room temperature, water, MTBE or n-heptane, listed as Pattern D): most stable form | critical water concentration for phase interconversion between Pattern C and D [2]: 50% | polymorph stability in humid conditions [3]: unchanged

CC[C@H](C)C(=O)N1CCC(NC(=O)Nc2ccc(OC(F)(F)F)c(F)c2)CC1 [Formula (I), (S)-1-(3-fluoro-4-(trifluoromethoxy)phenyl)-3-(1-(2-methylbutanoyl)piperidin-4-yl)urea]
Soluble? ([4]; 2-MeTHF, RT, Vol 0.2 mL): Yes | solubility ([4]; 2-butanone (MEK), organic solvent or mixture, MEK, RT, read-out: Nominal Solubility): 50.4 mg/mL | solubility ([4]; 2-butanone (MEK), organic solvent or mixture, MEK, RT, read-out: Solubility Range): ≥ 50.4 mg/mL | solubility ([4]; 2-methyltetrahydrofuran (2-MeTHF), organic solvent or mixture, 2-MeTHF, RT, read-out: Nominal Solubility): 25.2 mg/mL | solubility ([4]; 2-methyltetrahydrofuran (2-MeTHF), organic solvent or mixture, 2-MeTHF, RT, read-out: Solubility Range): 25.2 to 50.4 mg/mL | Soluble? ([4]; ACN, RT, Vol 0.1 mL): Yes | Soluble? ([4]; Acetone, RT, Vol 0.1 mL): Yes | Soluble? ([4]; DCM, RT, Vol 0.1 mL): Yes | solubility ([4]; DMF, organic solvent or mixture, DMF, RT, read-out: Nominal Solubility): 46.1 mg/mL | solubility ([4]; DMF, organic solvent or mixture, DMF, RT, read-out: Solubility Range): ≥ 46.1 mg/mL | Soluble? ([4]; DMF, RT, Vol 0.1 mL): Yes | solubility ([4]; DMSO, organic solvent or mixture, DMSO, RT, read-out: Nominal Solubility): 47.8 mg/mL | solubility ([4]; DMSO, organic solvent or mixture, DMSO, RT, read-out: Solubility Range): ≥ 47.8 mg/mL | Soluble? ([4]; DMSO, RT, Vol 0.1 mL): Yes | Soluble? ([4]; Dioxane, RT, Vol 0.5 mL): Yes | Soluble? ([4]; EtOAc, RT, Vol 0.1 mL): Yes | Soluble? ([4]; EtOH, RT, Vol 0.1 mL): Yes | Soluble? ([4]; IPA, RT, Vol 0.1 mL): Yes | Soluble? ([4]; IPAC, RT, Vol 0.2 mL): Yes | Soluble? ([4]; MEK, RT, Vol 0.1 mL): Yes | Soluble? ([4]; MIBK, RT, Vol 0.1 mL): Yes | Soluble? ([4]; MTBE, 50° C., Vol 1.0 mL): Yes | Soluble? ([4]; MeOH, RT, Vol 0.1 mL): Yes | solubility ([4]; NMP, organic solvent or mixture, NMP, RT, read-out: Nominal Solubility): 55.2 mg/mL | solubility ([4]; NMP, organic solvent or mixture, NMP, RT, read-out: Solubility Range): ≥ 55.2 mg/mL | Soluble? ([4]; NMP, RT, Vol 0.1 mL): Yes | Soluble? ([4]; THF, RT, Vol 0.1 mL): Yes | Soluble? ([4]; Toluene, 50° C., Vol 0.5 mL): Yes | Soluble? ([4]; Water, 50° C., Vol 4.0 mL): No | solubility ([4]; acetone, organic solvent or mixture, Acetone, RT, read-out: Nominal Solubility): 43.7 mg/mL | solubility ([4]; acetone, organic solvent or mixture, Acetone, RT, read-out: Solubility Range): ≥ 43.7 mg/mL | solubility ([4]; acetonitrile (ACN), organic solvent or mixture, ACN, RT, read-out: Nominal Solubility): 48.3 mg/mL | solubility ([4]; acetonitrile (ACN), organic solvent or mixture, ACN, RT, read-out: Solubility Range): ≥ 48.3 mg/mL | Soluble? ([4]; c-Hexane, 50° C., Vol 4.0 mL): No | solubility ([4]; c-hexane, 50 °C, organic solvent or mixture, c-Hexane, 50° C., read-out: Solubility Range): < 1.17 mg/mL | solubility ([4]; cyclohexane (c-hexane), 50 °C, organic solvent or mixture, c-Hexane, 50° C., read-out: Nominal Solubility): < 1.17 mg/mL | solubility ([4]; dichloromethane (DCM), organic solvent or mixture, DCM, RT, read-out: Nominal Solubility): 46.6 mg/mL | solubility ([4]; dichloromethane (DCM), organic solvent or mixture, DCM, RT, read-out: Solubility Range): ≥ 46.6 mg/mL | solubility ([4]; dioxane, organic solvent or mixture, Dioxane, RT, read-out: Nominal Solubility): 9.36 mg/mL | solubility ([4]; dioxane, organic solvent or mixture, Dioxane, RT, read-out: Solubility Range): 9.36 to 23.4 mg/mL | solubility ([4]; ethanol, organic solvent or mixture, EtOH, RT, read-out: Nominal Solubility): 41.2 mg/mL | solubility ([4]; ethanol, organic solvent or mixture, EtOH, RT, read-out: Solubility Range): ≥ 41.2 mg/mL | solubility ([4]; ethyl acetate (EtOAc), organic solvent or mixture, EtOAc, RT, read-out: Nominal Solubility): 54.3 mg/mL | solubility ([4]; ethyl acetate (EtOAc), organic solvent or mixture, EtOAc, RT, read-out: Solubility Range): ≥ 54.3 mg/mL | solubility ([4]; isopropanol (IPA), organic solvent or mixture, IPA, RT, read-out: Nominal Solubility): 56 mg/mL | solubility ([4]; isopropanol (IPA), organic solvent or mixture, IPA, RT, read-out: Solubility Range): ≥ 56 mg/mL | solubility ([4]; isopropyl acetate (IPAc), organic solvent or mixture, IPAC, RT, read-out: Nominal Solubility): 23.4 mg/mL | solubility ([4]; isopropyl acetate (IPAc), organic solvent or mixture, IPAC, RT, read-out: Solubility Range): 23.4 to 46.7 mg/mL | solubility ([4]; methanol, organic solvent or mixture, MeOH, RT, read-out: Nominal Solubility): 43.2 mg/mL | solubility ([4]; methanol, organic solvent or mixture, MeOH, RT, read-out: Solubility Range): ≥ 43.2 mg/mL | solubility ([4]; methyl isobutyl ketone (MIBK), organic solvent or mixture, MIBK, RT, read-out: Nominal Solubility): 48 mg/mL | solubility ([4]; methyl isobutyl ketone (MIBK), organic solvent or mixture, MIBK, RT, read-out: Solubility Range): ≥ 48 mg/mL | solubility ([4]; methyl tert-butyl ether (MTBE), 50 °C, organic solvent or mixture, MTBE, 50° C., read-out: Nominal Solubility): 5.68 mg/mL | solubility ([4]; methyl tert-butyl ether (MTBE), 50 °C, organic solvent or mixture, MTBE, 50° C., read-out: Solubility Range): 5.68 to 11.4 mg/mL | Soluble? ([4]; n-BuOH, RT, Vol 0.1 mL): Yes | Soluble? ([4]; n-Heptane, 50° C., Vol 4.0 mL): No | Soluble? ([4]; n-Propanol, RT, Vol 0.1 mL): Yes | solubility ([4]; n-butanol (n-BuOH), organic solvent or mixture, n-BuOH, RT, read-out: Nominal Solubility): 42.6 mg/mL | solubility ([4]; n-butanol (n-BuOH), organic solvent or mixture, n-BuOH, RT, read-out: Solubility Range): ≥ 42.6 mg/mL | solubility ([4]; n-heptane, 50 °C, organic solvent or mixture, n-Heptane, 50° C., read-out: Nominal Solubility): < 1.32 mg/mL | solubility ([4]; n-heptane, 50 °C, organic solvent or mixture, n-Heptane, 50° C., read-out: Solubility Range): < 1.32 mg/mL | solubility ([4]; n-propanol, organic solvent or mixture, n-Propanol, RT, read-out: Nominal Solubility): 52.2 mg/mL | solubility ([4]; n-propanol, organic solvent or mixture, n-Propanol, RT, read-out: Solubility Range): ≥ 52.2 mg/mL | solubility ([4]; tetrahydrofuran (THF), organic solvent or mixture, THF, RT, read-out: Nominal Solubility): 48 mg/mL | solubility ([4]; tetrahydrofuran (THF), organic solvent or mixture, THF, RT, read-out: Solubility Range): ≥ 48 mg/mL | solubility ([4]; toluene, 50 °C, organic solvent or mixture, Toluene, 50° C., read-out: Nominal Solubility): 10 mg/mL | solubility ([4]; toluene, 50 °C, organic solvent or mixture, Toluene, 50° C., read-out: Solubility Range): 10 to 25 mg/mL | solubility ([4]; water, 50 °C, water, Water, 50° C., read-out: Nominal Solubility): < 1.36 mg/mL | solubility ([4]; water, 50 °C, water, Water, 50° C., read-out: Solubility Range): < 1.36 mg/mL
